Experimental data as given in US7119256B2, “Gene encoding acetolactate synthase” (priority 2000, dated 2006).

What was measured:
wild type ALS protein [1] = target: T1, wild type ALS protein (Oryza sativa subsp. japonica, UniProt Q6K2E8); experiment: Herbicide sensitivity of partially purified wild type ALS protein (acetoin colorimetric ALS activity); format: biochemical, rice (Kinmaze); design: the wild type ALS protein was separated and purified in the same manner and used for the experiment; from tissue; host or cells: wild type rice (Kinmaze) cultured cells, liquid culture; ammonium sulfate, Sephadex G-25, HiTrap Q
T1 sequence (Q6K2E8 44-644): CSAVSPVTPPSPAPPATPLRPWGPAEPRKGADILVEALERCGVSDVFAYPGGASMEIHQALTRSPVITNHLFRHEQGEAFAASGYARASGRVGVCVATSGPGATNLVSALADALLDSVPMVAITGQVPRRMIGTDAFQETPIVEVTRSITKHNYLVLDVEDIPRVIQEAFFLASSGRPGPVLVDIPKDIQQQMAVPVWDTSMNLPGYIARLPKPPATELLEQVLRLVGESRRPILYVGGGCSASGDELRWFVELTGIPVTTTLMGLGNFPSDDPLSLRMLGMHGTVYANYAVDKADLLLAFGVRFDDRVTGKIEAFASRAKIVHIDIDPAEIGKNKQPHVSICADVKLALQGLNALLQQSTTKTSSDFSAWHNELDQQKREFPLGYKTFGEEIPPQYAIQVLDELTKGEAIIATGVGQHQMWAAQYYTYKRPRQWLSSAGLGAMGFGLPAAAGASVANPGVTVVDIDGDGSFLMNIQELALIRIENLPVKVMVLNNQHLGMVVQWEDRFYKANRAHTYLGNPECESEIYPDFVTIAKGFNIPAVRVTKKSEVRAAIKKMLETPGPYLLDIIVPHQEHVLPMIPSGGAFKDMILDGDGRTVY

mutant ALS protein = mutant ALS protein (Oryza sativa subsp. japonica, UniProt Q6K2E8, S627I/W548L); experiment: Herbicide sensitivity of crude mutant ALS (W548L and S627I) expressed in E. coli, in presence of valine; format: biochemical, rice; design: the cDNA containing a full length mutant ALS gene could be obtained; made in house; host or cells: E. coli JM 105, pGEX-4T-3; crude enzyme solution; conditions: crude enzyme from E. coli, valine added
Method: (§1) Preparation and purification of ALS from E. coli were performed by the following method. First, a pellet of the transformant E. coli stored at −80° C. was suspended in ALS extraction buffer (potassium phosphate buffer (pH 7.5) containing 30% glycerol and 0.5 mM MgCl2). Specifically, 2.5 ml of the buffer was added to the pellet obtained from 50 ml of the culture solution. The suspension was subjected to ultrasonication (Heat Systems-Ultrasonics, Sonicator W-225R, micro chip, output control 8, interval of approximately 1 sec, twice (40 sec each)), and subjected to centrifugation at 15000×g, 4° C. for 20 min, thereby obtaining the supernatant as a crude enzyme solution.
(§2) Herbicide sensitivity of mutant ALS protein was examined using the crude enzyme solution obtained in Example 4. Herbicide sensitivity test was performed in the manner same as that in Example 2. In the herbicide sensitivity test, three herbicides, bispyribac-sodium, pyrithiobac-sodium, and pyriminobac were used as PC herbicides; four drugs, chlorsulfuron, bensulfuron-methyl, pyrazosulfuron-ethyl and imazosulfuron were used as sulfonylurea herbicides; and two drugs, imazaquin, and imazapyr were used as imidazolinon herbicides.
Solutions containing these herbicides at certain concentrations (bispyribac-sodium and pyrithiobac-sodium were aqueous solutions, others were acetone solutions) were added to reaction solutions before addition of the mutant ALS protein. The final concentration of acetone was 1%. In addition, since an ALS protein from the rice cDNA expressed within E. coli is insusceptible to valine (Kil et al., J. Biochem. Mol. Biol. 31 287–295, 1998), a herbicide sensitivity test was performed under conditions in which ALS activity derived from E. coli was inhibited with valine.

[2] = tested on: rice plant transformed with the mutant ALS gene; experiment: Foliar spray of bispyribac-sodium on transformant rice plants, growth survey; format: in vivo, rice (Nippon-bare); conditions: 1 kg of a.i./ha with 0.2% surfactant K, sprayed over leaves and stems; about 40 days after spraying
Excerpt: Of 80 hygromycin resistant transformant rice plants potted, those which grew normally at the leaf stage 5 were 27 plants to which the mutant ALS gene had been introduced and 46 plants to which the wild type ALS gene had been introduced. Plants containing the wild type ALS gene introduced therein tended to grow healthier than those containing the mutant ALS gene therein. At this time, 4 plants containing the mutant ALS gene introduced therein and 5 plants containing the wild type ALS gene introduced therein were appropriately selected, and 1 kg of a.i./ha bispyribac-sodium salt supplemented with 0.2% surfactant K was sprayed over the leaves and stems. In FIG. 40, the plant length A was about 90 cm.

[3] = tested on: callus of a rice plant (Nippon-bare) transformed with a mutant ALS gene; experiment: Bispyribac-sodium sensitivity of calli of rice transformed with the mutant ALS gene; format: cell-based
Method: Simultaneously with the above described potting, part of the calli which had not redifferentiated (9 calli) (FIG. 35) was sub-cultured on solid media for production of a bispyribac-sodium resistant callus used in Example 1. The solid media contained 10 μM bispyribac-sodium. Thus, 6 out of 9 calli grew normally. […] Accordingly, 6 calli grown on a solid medium containing 10 μM bispyribac-sodium were all shown to have strong bispyribac-sodium resistance.

[4] = tested on: callus of the wild type rice plant (Nippon-bare); experiment: Bispyribac-sodium sensitivity of callus of wild type rice plant; format: cell-based
wild type ALS protein [5] = target: T1, wild type ALS protein; experiment: Herbicide sensitivity of crude wild type ALS expressed in E. coli, in presence of valine; format: biochemical, rice; design: one type of cDNA containing a full length ALS gene could be obtained from a cDNA library derived from the wild type; made in house; host or cells: E. coli JM 105, pGEX-2T; crude enzyme solution (sonicate supernatant); conditions: crude enzyme from E. coli, valine added
Method: as §1
as §2, with “herbicides. […]” for “herbicides.”

Sequence of mutant ALS protein (Q6K2E8 44-644 W548L/S627I): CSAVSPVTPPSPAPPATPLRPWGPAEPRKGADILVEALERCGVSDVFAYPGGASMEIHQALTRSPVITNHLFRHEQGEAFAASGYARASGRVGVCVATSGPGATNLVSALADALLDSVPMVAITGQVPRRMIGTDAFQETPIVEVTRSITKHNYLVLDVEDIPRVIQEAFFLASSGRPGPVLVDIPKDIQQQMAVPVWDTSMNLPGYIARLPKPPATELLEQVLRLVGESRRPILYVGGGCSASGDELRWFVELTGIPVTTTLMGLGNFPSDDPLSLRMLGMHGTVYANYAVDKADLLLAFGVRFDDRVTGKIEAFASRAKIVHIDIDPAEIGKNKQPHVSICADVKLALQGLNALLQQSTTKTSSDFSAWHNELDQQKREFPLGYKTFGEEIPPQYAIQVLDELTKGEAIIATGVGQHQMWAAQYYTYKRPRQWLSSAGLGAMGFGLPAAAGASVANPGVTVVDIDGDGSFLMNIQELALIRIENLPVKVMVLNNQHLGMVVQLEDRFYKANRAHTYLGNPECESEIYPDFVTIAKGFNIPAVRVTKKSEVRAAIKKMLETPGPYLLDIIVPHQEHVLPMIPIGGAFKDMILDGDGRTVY

Row | Compound | IC50 (wild type ALS protein [1]) | resistance of the mutant ALS protein to herbicide compared to wild type ALS protein (mutant ALS protein) | growth of plant containing the mutant ALS gene after spraying [2] | calli that grew normally on solid medium ([3]; 10 μM bispyribac-sodium) | drug sensitivity of transformant callus in liquid culture ([3]; one of the 6 normally growing calli) | drug sensitivity of wild type callus [4] | mutant ALS activity in the presence of herbicide (mutant ALS protein) | wild type ALS activity in the presence of herbicide (wild type ALS protein [5])
1 | COc1nc(C)nc(NC(=O)NS(=O)(=O)c2ccccc2Cl)n1 [Chlorsulfuron, chlorsulfuron] | 0.0173 µM | moderate |  |  |  |  |  | 
2 | COc1cc(OC)nc(Oc2cccc(Oc3nc(OC)cc(OC)n3)c2C(=O)[O-])n1.[Na+] [Bispyribac-sodium, bispyribac-sodium] | 0.00563 µM | best resistance | grew almost normally | 6 out of 9 | showed bispyribac-sodium resistance | showed bispyribac-sodium sensitivity | not inhibited at all | inhibited
